Experimental data: PubChem BioAssay (NCI)
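Growth conditions: 96-well plates. Treatment: test compound, 48 hours, 5 concentrations. Analysis: linear interpolation between bracketing concentrations; unreached endpoints set to highest concentration. GI50 = concentration required for 50% inhibition of growth. At the TGI there is no net growth.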

Experiments:
Test in all cases: inhibition of tumour cell growth, NCI panel, 48 h; in the data active = GI50 below about 0.43 µM; inactive = the rest
786-0 renal = tested on: 786-0 renal
A498 renal = tested on: A498 renal
A549 NSCLC = tested on: A549 NSCLC
ACHN renal = tested on: ACHN renal
BT-549 breast = tested on: BT-549 breast
CAKI-1 renal = tested on: CAKI-1 renal
CCRF-CEM leukemia = tested on: CCRF-CEM leukemia
COLO 205 colon = tested on: COLO 205 colon
DU-145 prostate = tested on: DU-145 prostate
EKVX NSCLC = tested on: EKVX NSCLC
HCC-2998 colon = tested on: HCC-2998 colon
HCT-116 colon = tested on: HCT-116 colon
HCT-15 colon = tested on: HCT-15 colon
HL-60(TB) leukemia = tested on: HL-60(TB) leukemia
HOP-62 NSCLC = tested on: HOP-62 NSCLC
HOP-92 NSCLC = tested on: HOP-92 NSCLC
HS 578T breast = tested on: HS 578T breast
HT29 colon = tested on: HT29 colon
IGROV1 ovarian = tested on: IGROV1 ovarian
K-562 leukemia = tested on: K-562 leukemia
LOX IMVI melanoma = tested on: LOX IMVI melanoma
M14 melanoma = tested on: M14 melanoma
MALME-3M melanoma = tested on: MALME-3M melanoma
MCF7 breast = tested on: MCF7 breast
MDA-MB-435 = tested on: MDA-MB-435
MOLT-4 leukemia = tested on: MOLT-4 leukemia
NCI-H226 lung = tested on: NCI-H226 lung
NCI-H23 lung = tested on: NCI-H23 lung
NCI-H460 lung = tested on: NCI-H460 lung
NCI-H522 lung = tested on: NCI-H522 lung
NCI/ADR-RES ovarian = tested on: NCI/ADR-RES ovarian
OVCAR-3 ovarian = tested on: OVCAR-3 ovarian
OVCAR-4 ovarian = tested on: OVCAR-4 ovarian
OVCAR-5 ovarian = tested on: OVCAR-5 ovarian
OVCAR-8 ovarian = tested on: OVCAR-8 ovarian
PC-3 prostate = tested on: PC-3 prostate
RPMI-8226 leukemia = tested on: RPMI-8226 leukemia
RXF 393 renal = tested on: RXF 393 renal
SF-268 CNS = tested on: SF-268 CNS
SF-295 CNS = tested on: SF-295 CNS
SF-539 CNS = tested on: SF-539 CNS
SK-MEL-2 melanoma = tested on: SK-MEL-2 melanoma
SK-MEL-28 melanoma = tested on: SK-MEL-28 melanoma
SK-MEL-5 melanoma = tested on: SK-MEL-5 melanoma
SK-OV-3 ovarian = tested on: SK-OV-3 ovarian
SN12C renal = tested on: SN12C renal
SNB-19 CNS = tested on: SNB-19 CNS
SNB-75 CNS = tested on: SNB-75 CNS
SR leukemia = tested on: SR leukemia
SW-620 colon = tested on: SW-620 colon
T-47D breast = tested on: T-47D breast
U251 CNS = tested on: U251 CNS
UACC-257 melanoma = tested on: UACC-257 melanoma
UACC-62 melanoma = tested on: UACC-62 melanoma
UO-31 renal = tested on: UO-31 renal

COc1ccc2c(c1)OC(N)=C(C#N)C2c1cc(OC)c(OC)c(OC)c1 (configuration not stated)
1.11 µM: TGI (SK-OV-3 ovarian)
> 51 µM: TGI (IGROV1 ovarian)
1.48 µM: TGI (U251 CNS)
0.0631 µM: TGI (NCI-H522 lung)
0.068 µM: TGI (HL-60(TB) leukemia)
73.6 µM: TGI (RXF 393 renal)
> 44.4 µM: TGI (SF-295 CNS)
45.9 µM: TGI (SNB-75 CNS)
inactive: GI50 (MALME-3M melanoma) 80.5 µM | GI50 (T-47D breast) > 100 µM | GI50 (UO-31 renal) 0.433 µM
0.172 µM: TGI (HT29 colon)
0.0836 µM: TGI (BT-549 breast)
> 47.7 µM: TGI (NCI-H23 lung)
> 100 µM: TGI (786-0 renal) | TGI (A549 NSCLC) | TGI (ACHN renal) | TGI (CAKI-1 renal) | TGI (CCRF-CEM leukemia) | TGI (EKVX NSCLC) | TGI (HCC-2998 colon) | TGI (HCT-15 colon) | TGI (HOP-92 NSCLC) | TGI (HS 578T breast) | TGI (K-562 leukemia) | TGI (LOX IMVI melanoma) | TGI (M14 melanoma) | TGI (MALME-3M melanoma) | TGI (MCF7 breast) | TGI (MOLT-4 leukemia) | TGI (NCI-H226 lung) | TGI (OVCAR-4 ovarian) | TGI (OVCAR-5 ovarian) | TGI (PC-3 prostate) | TGI (RPMI-8226 leukemia) | TGI (SF-268 CNS) | TGI (SK-MEL-28 melanoma) | TGI (SN12C renal) | TGI (SNB-19 CNS) | TGI (SR leukemia) | TGI (SW-620 colon) | TGI (T-47D breast) | TGI (UACC-257 melanoma) | TGI (UACC-62 melanoma) | TGI (UO-31 renal)
0.148 µM: TGI (A498 renal)
active: GI50 (786-0 renal) 0.0538 µM | GI50 (A498 renal) 0.0222 µM | GI50 (A549 NSCLC) 0.0401 µM | GI50 (ACHN renal) 0.0691 µM | GI50 (BT-549 breast) 0.0268 µM | GI50 (CAKI-1 renal) 0.107 µM | GI50 (CCRF-CEM leukemia) 0.0337 µM | GI50 (COLO 205 colon) 0.0244 µM | GI50 (DU-145 prostate) 0.0279 µM | GI50 (EKVX NSCLC) 0.251 µM | GI50 (HCC-2998 colon) 0.0398 µM | GI50 (HCT-116 colon) 0.0331 µM | GI50 (HCT-15 colon) 0.034 µM | GI50 (HL-60(TB) leukemia) 0.0256 µM | GI50 (HOP-62 NSCLC) 0.0548 µM | GI50 (HOP-92 NSCLC) 0.169 µM | GI50 (HS 578T breast) 0.0408 µM | GI50 (HT29 colon) 0.0328 µM | GI50 (IGROV1 ovarian) 0.0463 µM | GI50 (K-562 leukemia) 0.0338 µM | GI50 (LOX IMVI melanoma) 0.0346 µM | GI50 (M14 melanoma) 0.0336 µM | GI50 (MCF7 breast) 0.0361 µM | GI50 (MDA-MB-435) 0.0189 µM | GI50 (MOLT-4 leukemia) 0.0365 µM | GI50 (NCI-H226 lung) 0.0573 µM | GI50 (NCI-H23 lung) 0.0362 µM | GI50 (NCI-H460 lung) 0.0345 µM | GI50 (NCI-H522 lung) 0.0194 µM | GI50 (NCI/ADR-RES ovarian) 0.0199 µM | GI50 (OVCAR-3 ovarian) 0.0253 µM | GI50 (OVCAR-4 ovarian) 0.0714 µM | GI50 (OVCAR-5 ovarian) 0.059 µM | GI50 (OVCAR-8 ovarian) 0.0355 µM | GI50 (PC-3 prostate) 0.0498 µM | GI50 (RPMI-8226 leukemia) 0.0389 µM | GI50 (RXF 393 renal) 0.0344 µM | GI50 (SF-268 CNS) 0.0642 µM | GI50 (SF-295 CNS) 0.03 µM | GI50 (SF-539 CNS) 0.0316 µM | GI50 (SK-MEL-2 melanoma) 0.0321 µM | GI50 (SK-MEL-28 melanoma) 0.0781 µM | GI50 (SK-MEL-5 melanoma) 0.0317 µM | GI50 (SK-OV-3 ovarian) 0.0304 µM | GI50 (SN12C renal) 0.0494 µM | GI50 (SNB-19 CNS) 0.0864 µM | GI50 (SNB-75 CNS) 0.0394 µM | GI50 (SR leukemia) 0.0345 µM | GI50 (SW-620 colon) 0.038 µM | GI50 (U251 CNS) 0.0329 µM | GI50 (UACC-257 melanoma) 0.0457 µM | GI50 (UACC-62 melanoma) 0.0343 µM
0.151 µM: TGI (SK-MEL-2 melanoma)
> 37.5 µM: TGI (HCT-116 colon)
> 70.2 µM: TGI (OVCAR-8 ovarian)
31.8 µM: TGI (SF-539 CNS)
0.0648 µM: TGI (OVCAR-3 ovarian)
0.0449 µM: TGI (NCI/ADR-RES ovarian)
0.061 µM: TGI (COLO 205 colon)
0.0802 µM: TGI (DU-145 prostate)
33.2 µM: TGI (HOP-62 NSCLC)
